Data reported in ChEMBL document CHEMBL4257566, “Design, synthesis and structure-based optimization of novel isoxazole-containing benzamide derivatives as FtsZ modulators” (Eur J Med Chem, 2018).
Values after ≈ are worked out from the molar mass of the structure shown.

What was measured:
Assay type in all cases: functional
Staphylococcus aureus [1] = assay: Antibacterial activity against Staphylococcus aureus ATCC 25923 after 24 hrs by broth microdilution based CLSI method; settings: ATCC 25923, 24 h
Staphylococcus aureus [2] = assay: Antibacterial activity against methicillin-resistant Staphylococcus aureus ATCC 43300 after 24 hrs by broth microdilution based CLSI method; settings: ATCC 43300, 24 h
Pseudomonas aeruginosa = assay: Antibacterial activity against Pseudomonas aeruginosa ATCC 27853 after 24 hrs by broth microdilution based CLSI method; settings: ATCC 27853, 24 h
Bacillus subtilis = assay: Antibacterial activity against Bacillus subtilis ATCC 9372 after 24 hrs by broth microdilution based CLSI method; settings: ATCC 9372, 24 h
Staphylococcus aureus [3] = assay: Antibacterial activity against clinical isolate of penicillin-resistant Staphylococcus aureus after 24 hrs by broth microdilution based CLSI method
Escherichia coli = assay: Antibacterial activity against Escherichia coli ATCC 25922 after 24 hrs by broth microdilution based CLSI method; settings: ATCC 25922, 24 h
Bacillus pumilus = assay: Antibacterial activity against Bacillus pumilus CMCC63202 after 24 hrs by broth microdilution based CLSI method; settings: CMCC63202, 24 h

| Structure (SMILES) | MIC (Staphylococcus aureus [1]) [µg/mL] | MIC (Staphylococcus aureus [2]) [µg/mL] | MIC (Pseudomonas aeruginosa) [µg/mL] | MIC (Bacillus subtilis) [µg/mL] | MIC (Staphylococcus aureus [3]) [µg/mL] | MIC (Escherichia coli) [µg/mL] | MIC (Bacillus pumilus) [µg/mL] |
| --- | --- | --- | --- | --- | --- | --- | --- |
| NC(=O)c1c(F)ccc(OCc2cc(/C=C/c3ccccc3)no2)c1F | > 64 | > 64 | > 64 | 8 (≈ 22.5 µM) | > 64 | > 64 | > 64 |
| CC(C)(C)c1ccc(-c2onc(COc3ccc(F)c(C(N)=O)c3F)c2Br)cc1 | > 64 | > 64 | > 64 | 1 (≈ 2.15 µM) | > 64 | > 64 | 1 (≈ 2.15 µM) |
| CCCOc1cccc(-c2cc(COc3ccc(F)c(C(N)=O)c3F)on2)c1 | > 64 | > 64 | > 64 | 64 (≈ 165 µM) | > 64 | > 64 | > 64 |
| CCCCCc1ccc(-c2cc(COc3ccc(F)c(C(N)=O)c3F)on2)cc1 | > 64 | > 64 | > 64 | 1 (≈ 2.5 µM) | > 64 | > 64 | > 64 |
| NC(=O)c1c(F)ccc(OCc2cc(-c3ccc(Br)cc3)no2)c1F | > 64 | > 64 | > 64 | 1 (≈ 2.44 µM) | > 64 | > 64 | > 64 |
| NC(=O)c1c(F)ccc(OCc2cc(-c3ccc(F)cc3)no2)c1F | > 64 | > 64 | > 64 | 4 (≈ 11.5 µM) | > 64 | > 64 | > 64 |
| NC(=O)c1c(F)ccc(OCc2cc(-c3ccco3)no2)c1F | > 64 | > 64 | > 64 | 32 (≈ 99.9 µM) | > 64 | > 64 | > 64 |
| NC(=O)c1c(F)ccc(OCc2cc(-c3cccc(Cl)c3)no2)c1F | > 64 | > 64 | > 64 | 8 (≈ 21.9 µM) | > 64 | > 64 | > 64 |
| NC(=O)c1c(F)ccc(OCc2cc(-c3ccc(-c4ccccn4)cc3)no2)c1F | > 64 | > 64 | > 64 | 64 (≈ 157 µM) | > 64 | > 64 | > 64 |
| NC(=O)c1c(F)ccc(OCc2cc(-c3ccc(Cl)cc3)on2)c1F | > 64 | > 64 | > 64 | 64 (≈ 175 µM) | > 64 | > 64 | > 64 |
| CCCOc1cccc(-c2cc(COc3ccc(F)c(C(N)=O)c3F)no2)c1 | > 64 | > 64 | > 64 | 4 (≈ 10.3 µM) | > 64 | > 64 | > 64 |
| CCCOc1ccc(-c2cc(COc3ccc(F)c(C(N)=O)c3F)on2)cc1 | > 64 | > 64 | > 64 | 16 (≈ 41.2 µM) | > 64 | > 64 | > 64 |
| NC(=O)c1c(F)ccc(OCc2cc(-c3ccc(Cl)c(Cl)c3)no2)c1F | > 64 | > 64 | > 64 | 64 (≈ 160 µM) | > 64 | > 64 | > 64 |
| NC(=O)c1c(F)ccc(OCc2cc(-c3ccc(Cl)cc3Cl)on2)c1F | > 64 | > 64 | > 64 | 0.5 (≈ 1.25 µM) | > 64 | > 64 | 8 (≈ 20 µM) |
| NC(=O)c1c(F)ccc(OCc2cc(-c3ccc4c(c3)OCO4)no2)c1F | > 64 | > 64 | > 64 | 4 (≈ 10.7 µM) | > 64 | > 64 | > 64 |
| NC(=O)c1c(F)ccc(OCc2cc(-c3ccc(C4CCCCC4)cc3)no2)c1F | > 64 | > 64 | > 64 | > 64 | > 64 | > 64 | > 64 |
| CCCOc1ccc(-c2cc(COc3ccc(F)c(C(N)=O)c3F)no2)cc1 | > 64 | > 64 | > 64 | > 64 | > 64 | > 64 | > 64 |
| NC(=O)c1c(F)ccc(OCc2cc(-c3ccccc3)on2)c1F | > 64 | > 64 | > 64 | 64 (≈ 194 µM) | > 64 | > 64 | > 64 |
| Cc1ccc(-c2cc(COc3ccc(F)c(C(N)=O)c3F)no2)cc1 | > 64 | > 64 | > 64 | 64 (≈ 186 µM) | > 64 | > 64 | > 64 |
| Cc1ccc(-c2cc(COc3ccc(F)c(C(N)=O)c3F)on2)cc1 | > 64 | > 64 | > 64 | 8 (≈ 23.2 µM) | > 64 | > 64 | > 64 |
| CC(C)c1ccc(-c2cc(COc3ccc(F)c(C(N)=O)c3F)on2)cc1 | > 64 | > 64 | > 64 | 2 (≈ 5.37 µM) | > 64 | > 64 | 32 (≈ 85.9 µM) |
| Cc1c(COc2ccc(F)c(C(N)=O)c2F)noc1-c1ccc(C(C)(C)C)cc1 | > 64 | > 64 | > 64 | 0.5 (≈ 1.25 µM) | > 64 | > 64 | 1 (≈ 2.5 µM) |
| CC(C)(C)c1ccc(-c2cc(CCOc3ccc(F)c(C(N)=O)c3F)no2)cc1 | > 64 | > 64 | > 64 | > 64 | > 64 | > 64 | > 64 |
| COc1cccc(-c2cc(COc3ccc(F)c(C(N)=O)c3F)on2)c1 | > 64 | > 64 | > 64 | 64 (≈ 178 µM) | > 64 | > 64 | > 64 |
| CCCCc1ccc(-c2cc(COc3ccc(F)c(C(N)=O)c3F)no2)cc1 | > 64 | > 64 | > 64 | 0.06 (≈ 0.155 µM) | > 64 | > 64 | > 64 |
| CCOc1cccc(-c2cc(COc3ccc(F)c(C(N)=O)c3F)on2)c1 | > 64 | > 64 | > 64 | 2 (≈ 5.34 µM) | > 64 | > 64 | 16 (≈ 42.7 µM) |
| CCOc1cccc(-c2cc(COc3ccc(F)c(C(N)=O)c3F)no2)c1 | > 64 | > 64 | > 64 | 32 (≈ 85.5 µM) | > 64 | > 64 | > 64 |
| COc1ccc(-c2cc(COc3ccc(F)c(C(N)=O)c3F)no2)cc1 | > 64 | > 64 | > 64 | 64 (≈ 178 µM) | > 64 | > 64 | > 64 |
| NC(=O)c1c(F)ccc(OCc2noc(-c3ccc(Cl)cc3)c2Br)c1F | > 64 | > 64 | > 64 | > 64 | > 64 | > 64 | > 64 |
